# Patent publication US20090232866A1, “Oligopeptides as coating material for medical products” (priority 2003, published 2009)
# *: point of attachment. CH2Cl = ClC*
# Test system: coronary arteries of pigs
# Experiment: Balloon angioplasty and stent implantation in pig coronary arteries, IVUS assessment of neointimal proliferation after 4 weeks
# Assay type: in vivo, Domestic pigs
# Conditions: local administration via perfusion balloon, 4 weeks after balloon angioplasty and stent implantation, 7 pigs per group
substance,measurement,setting,value
Ac-Tyr-Val-Ala-Asp-chloromethylketone (Ac-YVAD-CH2Cl) [Ac-YVAD-CMK],reduction of maximum plaque area in comparison with the negative control group,fraction of control value,approximately ⅓
same,reduction of plaque volume in comparison with the negative control group,fraction of control value,approximately ⅙
same,reduction of the stenotisized area in comparison with the negative control group,percent of control value,approximately 40%
